Assay results reported in US6399629B1, “Efflux pump inhibitors” (priority 1998, dated 2002).

Test system: Pseudomonas aeruginosa PAM1001
Assay: checkerboard assay (broth microdilution): levofloxacin MIC in presence of efflux pump inhibitor
Type: cell-based
Summary of the method: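 Reduction of levofloxacin MIC by an efflux pump inhibitor measured against Pseudomonas aeruginosa PAM1001. Each microdilution well held a unique combination of levofloxacin and inhibitor (max 40 μg/mL) in MHB, inoculum 5×10^5 CFU/mL. Readout after 20 h, 35° C: OD650 plus visual inspection.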

Row | Compound | Levofloxacin MIC Against P. aerugiuosa PAM1001 in Presence of Efflux Pump Inhibitor (EPI), Minimum Inhibitory Concentration (EPI Conc. 0 μg/mL) [µg/mL] | Levofloxacin MIC Against P. aerugiuosa PAM1001 in Presence of Efflux Pump Inhibitor (EPI), Minimum Inhibitory Concentration (EPI Conc. 0.625 μg/mL) [µg/mL] | Levofloxacin MIC Against P. aerugiuosa PAM1001 in Presence of Efflux Pump Inhibitor (EPI), Minimum Inhibitory Concentration (EPI Conc. 1.25 μg/mL) [µg/mL] | Levofloxacin MIC Against P. aerugiuosa PAM1001 in Presence of Efflux Pump Inhibitor (EPI), Minimum Inhibitory Concentration (EPI Conc. 2.5 μg/mL) [µg/mL] | Levofloxacin MIC Against P. aerugiuosa PAM1001 in Presence of Efflux Pump Inhibitor (EPI), Minimum Inhibitory Concentration (EPI Conc. 5 μg/ mL) [µg/mL] | Levofloxacin MIC Against P. aerugiuosa PAM1001 in Presence of Efflux Pump Inhibitor (EPI), Minimum Inhibitory Concentration (EPI Conc. 10 μg/mL) [µg/mL] | Levofloxacin MIC Against P. aerugiuosa PAM1001 in Presence of Efflux Pump Inhibitor (EPI), Minimum Inhibitory Concentration (EPI Conc. 20 μg/mL) [µg/mL] | Levofloxacin MIC Against P. aerugiuosa PAM1001 in Presence of Efflux Pump Inhibitor (EPI), Minimum Inhibitory Concentration (EPI Conc. 40 μg/mL) [µg/mL]
1 | NC[C@@H]1CN[C@@H](CO[C@@H](CCc2ccccc2)C(=O)Nc2cnc3ccccc3c2)C1 [Compound M69, (2R,4R)-4-(Aminomethyl)-2-[((1S)-3-phenyl-1-(3-quiolylcarbamoyl)propyl)oxymethyl]pyrrolidine] | 4 | 4 | 2 | 2 | 0.125 | 0.125 | 0.125 | 0.06
2 | Cc1ccc2ncc(C(=O)N[C@@H](CCc3ccccc3)CNC(=O)[C@H]3C[C@H](CN)CN3)cc2c1 [Compound M62, (2R,4R)-4-(Aminomethyl)-N-[(2S)-2-(6-methyl-3-quinolylcarboxamido)-4-phenylbutyl]-2-pyrrolidinecaroxamide] | 4 | 4 | 4 | 4 | 4 | 2 | 0.5 | 0.015
3 | (2R,4S)-4-(2-Aminoacetamideo)-N-(2-methylpropyl)-N-(7-ethyl-3-quinolylcarbamoyl)ethyl]-2-pyrrolidinecarboxamide [Compound M44] | 4 | 4 | 4 | 4 | 1 | 0.06 | 0.015 | 0.03
4 | CC(C)C[C@@H](NC(=O)[C@@H]1C[C@@H](NC(=O)CN)CN1)C(=O)Nc1cnc2ccccc2c1 [Compound M8] | 2 | 2 | 2 | 2 | 2 | 2 | 1 | 0.25
5 | Cc1cc2nc(C(O)[C@@H](CCc3ccccc3)NC(=O)[C@H]3C[C@H](NC(=O)[C@@H](C)N)CN3)oc2cc1C (mixture of isomers) [Compound M66, (2R,4S)-4-[(2R)-2-Aminopropionamido]-N-[(1R)-1-[(RS)-(5,6-dimethyl-2-benzoxaaolyl)hydroxymethyl]-3-phenylpropyl]-2-pyrrolidinecarboxamide] | 4 | 4 | 4 | 4 | 4 | 0.125 | 0.015 | 0.015
6 | NCC(=O)N[C@@H]1CN[C@@H](C(=O)N[C@H](CCc2ccccc2)C(=O)Nc2cnc3ccccc3c2)C1 [Compound M1, (2R,4S)-4-(2-Amionoacetamido)-N-[(1R-)-3-phenyl-1-(3-quinolylcarbamoyl)propyl]-2-pyrrolidinecarboxamide] | 4 | 4 | 4 | 4 | 2 | 0.06 | 0.015 | 0.015
7 | NC[C@@H]1CN[C@@H](C(=O)N[C@H](CCc2ccccc2)C(=O)NCc2cnc3ccccc3c2)C1 [Compound M32] | 4 | 4 | 4 | 4 | 2 | 1 | 0.25 | 0.25
8 | NCC(=O)N[C@H]1CN[C@H](C(=O)N[C@H](CCc2ccccc2)CSc2cnc3ccccc3c2)C1 [Compound M53, (2S,4R)-4-(2-Aminoacetamideo)-N-[(1R)-3-phenyl-1-[(3-quinolythio)methyl]propyl]-2-pyrrolidinecarboxamide] | 4 | 4 | 4 | 4 | 4 | 4 | 0.06 | 0.03
9 | NCC(=O)N[C@H]1CN[C@H](C(=O)N[C@@H](CCc2ccccc2)c2nc3ccccc3[nH]2)C1 [Compound M78] | 4 | 4 | 4 | 4 | 4 | 2 | 1 | 0.125
10 | NCCCC1CN[C@H](C(=O)N[C@H](CCc2ccccc2)C(=O)Nc2cnc3ccccc3c2)C1 (mixture of isomers) [Compound M93, (2S,4RS)-4-(3-Aminopropyl)-N-[(1R)-3-phenyl-1-(3-quiolylcarbamoyl)propyl]-2-pyrrolidinecarboxamide] | 4 | 4 | 2 | 0.25 | 0.125 | 0.015 | 0.015 | 0.008
11 | Cc1cc2nc(C(O)[C@@H](CCc3ccccc3)NC(=O)[C@@H]3C[C@@H](NC(=O)CN)CN3)oc2cc1C (mixture of isomers) [Compound M64, (2S,4R)-4-(2-Aminoacetamido)-N-[(1R)-1-[(RS)-(5,6-dimethyl-2-benzoxazoly)hydroxymethyl]-3-pheylpropyl]-2-pyrrolidinecarboxamide] | 4 | 4 | 4 | 4 | 4 | 4 | 4 | 0.015
